Data published in patent US20060252740A1 (priority 2005, published 2006).

How the values were obtained:
MM cells = conditions: cited from earlier work
clinical = test: clinical
Method: PK assessments included the following tests. […] The total number of PK samples collected was approximately 115 mL of whole blood (7-8 tablespoons). If a patient experienced a potentially drug-related SAE, additional PK samples were collected. Blood was drawn from the contralateral arm to the infusion site using an indwelling catheter to avoid multiple needle sticks. […] The blood tube was inverted several times and the tube placed in wet ice immediately pending separation of the plasma. If a catheter was used for blood collection, the fluid in the catheter was completely withdrawn prior to each sample collection and discarded. Plasma samples were kept on wet ice during collection and centrifugation. Plasma samples were split into two cryovials prior to freezing at −70° C.

[1] = Cellular assays (potency of 17-AAG versus 17-AG); format: cell-based
[2] = tested on: adult patients with solid tumors; conditions: patients treated at 56 mg/m^2; cited from earlier work
[3] = tested on: patients with advanced solid tumors; conditions: 80 mg/m^2 dose level, cited from earlier work
[4] = tested on: patients with advanced solid tumors; conditions: population PK analysis; cited from earlier work
[5] = 17-AG metabolite, Cohorts 3 & 4, 17-AAG 150 mg/m^2, Max
[6] = 17-AG metabolite, Cohorts 3 & 4, 17-AAG 150 mg/m^2, Median
[7] = 17-AG metabolite, Cohorts 3 & 4, 17-AAG 150 mg/m^2, Min

CC(C)C[C@H](NC(=O)[C@H](Cc1ccccc1)NC(=O)c1cnccn1)B(O)O [bortezomib]
stress response of MM cells (MM cells; pre-clinical studies): triggers significant Hsp90 up-regulation
effect on drug resistance of MM cells (MM cells; preclinical and clinical studies): can overcome resistance of MM cells to conventional or high-dose cytotoxic chemotherapy

CO[C@H]1/C=C\C=C(/C)C(=O)NC2=CC(=O)C(N)=C(C[C@@H](C)C[C@H](OC)[C@H](O)[C@@H](C)/C=C(\C)[C@@H]1OC(N)=O)C2=O [17-AG, 17-aminogeldanamycin]
AUCext (clinical; [5]): 16.0%
AUCextra (clinical; [5]): 2,604 ng/mL * h
AUCtotal (clinical; [5]): 16,323 ng/mL * h
Lz (clinical; [5]): 0.1512
AUCext (clinical; [6]): 5.0%
AUCtotal (clinical; [6]): 3,253 ng/mL * h
Lz (clinical; [6]): 0.1200
AUCext (clinical; [7]): 2.2%
AUCtotal (clinical; [7]): 980 ng·h/mL
Lz (clinical; [7]): 0.0765
average ratio of AUCtotal for the 17-AG to AUCtotal for the parent drug 17-AAG (clinical; data of Tables 2 and 3, cohorts 1-4): 82.5±90.5%
AUC(0-t) (clinical; human, plasma, intravenous, 100 mg/m2, AUClast, 17-AG metabolite, Cohorts 1 & 2, 17-AAG 100 mg/m^2, Mean): 3480 ng·h/mL
half-life (clinical; human, plasma, intravenous, Terminal elimination half-life, 17-AG metabolite, cohorts 1-4 combined): 6.52 ± 1.74 h
elimination in plasma profiles (clinical; plasma profiles after 17-AAG infusion): much slower elimination
relative potency of 17-AAG and 17-AG [1]: equipotent in cellular assays
Clearance [2]: 30.8 L/h/m^2
VZ [2]: 203 L/m^2
average AUC [2]: 5,558 nM*h
average t1/2 [2]: 8.6 h
t1/2 [3]: 1.75 h
Cmax ([3]; read-out: plasma Cmax): 607 nM
Clearance [4]: 21.3 L/h
